How the values were obtained:
[1] = test system: α-acid glycoprotein (AAG); test: Binding constant (Ka) of the drug to alpha-acid glycoprotein; design: species or system human
[2] = test system: normal human serum proteins; conditions: 5 min, 1 μM
Experimental: To one part of serum sample two parts of MeOH were added, mixed and centrifuged at 16,100 g for 30 min. The supernatant was recovered and can be stored for at least 2 weeks at −20° C. prior to assay. 60 μl is used for the cuvette assay or 24 μl is used for the plate reader assay. Six serial dilutions 1:2 to 1:120 of the extracts, obtained from analyte samples were prepared prior to assay. Methanol extract of normal dog serum without inhibitor was used for the dilution.
For the plate reader assay, the following conditions were used: The buffer was prepared of 50 mM Sodium acetate (NaOAc), pH 4.5, 2 mM dithiothreitol (DTT), 20 mM Sodium Chloride (NaCl), 0.01% Tween 20. The substrate was present at a final concentration of 20 μM in the above buffer. The substrate used is based on a natural substrate for HIV protease. It contains a portion (P4-P4′) of the p17-p24 gag protein. […] The enzyme, wild type HIV-1 protease, was present in the above buffer (50 mM NaOAc, pH4.5, 2 mM DTT, 200 mM NaCl), 0.01% Tween 20) at a final concentration of 4-5 nM. It should be appreciated that other forms of HIV protease can be used as well, including mutant forms of the protease.
The assay is performed at room temperature (RT). […] The reaction was started by adding 88 μl buffer containing substrate and the increase of fluorescence was monitored over time (FIG. 2). […]

plasma protein = conditions: cited from earlier work

Structure (SMILES) | Ka for AAG binding [1] | Free/total drug ratio (%), percentage of HIV protease inhibitor in sample not bound to proteins [2] [%] | plasma protein bound (plasma protein)
CC(C)(C)NC(=O)[C@@H]1CN(Cc2cccnc2)CCN1C[C@@H](O)C[C@@H](Cc1ccccc1)C(=O)N[C@H]1c2ccccc2C[C@H]1O [IDV, indinavir] | No binding | – | –
CC(C)CN(C[C@@H](O)[C@H](Cc1ccccc1)NC(=O)[C@H](CC(N)=O)NC(=O)c1ccc2ccccc2n1)C(=O)NC(C)(C)C [SC-52151] | 2.3 10^6 M^−1 | 10.5 | –
CC(C)(C)NC(=O)[C@@H]1C[C@@H]2CCCC[C@@H]2CN1C[C@@H](O)[C@H](Cc1ccccc1)NC(=O)[C@H](CC(N)=O)NC(=O)c1ccc2ccccc2n1 [saquinavir] | – | – | 90-99%

Reference: patent publication US7320878B2, “Protease assay for therapeutic drug monitoring” (Tibotec Pharmaceuticals, Ltd., priority 2001, dated 2008)
